Seven compounds from paper PMC13289949 (Biochemistry, 2025) can be followed below.

Where two headings read alike, the source gives them in different places.

Assay [1] has as its target FAD-MtbFDTS complex (Mycobacterium tuberculosis, UniProt P9WG57). Description: biochemical. In kind it is binding.
Assay [2] addresses T1, MtbFDTS (Mycobacterium tuberculosis, UniProt P9WG57). In words: MtbFDTS oxidase reaction followed by NADPH consumption. In kind it is biochemical. The settings on record: for effect on the oxidase reaction (NADPH oxidation rate), in words: aerobic, no CH2H4folate, ligand up to 250 μM; for increase in the rate of NADPH consumption: relative to control without ligand, >10× KACT, up to 250 μM ligand.

For assay [3], the target named is T1, MtbFDTS. In words: Hydrogen peroxide formation from MtbFDTS oxidase reaction. It counts as biochemical. The settings on record: NADPH and 100 μM plumbagin versus NADPH only.

T1 sequence (P9WG57 whole entry): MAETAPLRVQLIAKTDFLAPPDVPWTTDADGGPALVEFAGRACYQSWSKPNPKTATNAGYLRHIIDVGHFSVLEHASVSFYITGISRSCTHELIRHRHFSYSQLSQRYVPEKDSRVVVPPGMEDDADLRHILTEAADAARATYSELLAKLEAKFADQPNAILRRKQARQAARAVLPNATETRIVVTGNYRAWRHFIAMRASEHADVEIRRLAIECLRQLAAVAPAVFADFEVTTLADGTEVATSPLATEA
FAD-MtbFDTS complex, sequence (P9WG57 whole entry, one chain of several): as the sequence (P9WG57 whole entry) above

With `Nc1nc(=O)c2c([nH]1)NCC(CNc1ccc(C(=O)N[C@@H](CCC(=O)O)C(=O)O)cc1)N2C=O` (mixture of isomers) [folinic acid], the Kd in assay [1] (read-out: apparent Kd, binding to the FAD-MtbFDTS complex) was determined as 1300 ± 200 nM. Further, the “affinity of folinic acid for the dUMP-FAD-MtbFDTS ternary complex, in words” value in assay [1] (saturating concentration of dUMP, compared with FAD-MtbFDTS) is on record as “much higher affinity”. In assay [2], the “effect on the oxidase reaction (NADPH oxidation rate), in words” value (from here on “effect on the oxidase reaction”) was “display inhibition”.

Turning to `Cc1cn([C@H]2C[C@H](O)[C@@H](COP(=O)(O)O)O2)c(=O)[nH]c1=O` [dTMP, 2′-deoxythymidine-5′-monophosphate], the “effect on the oxidase reaction” value in assay [2] is “activated”.

For the compound `O=c1ccn([C@H]2C[C@H](O)[C@@H](COP(=O)(O)O)O2)c(=O)[nH]1` [dUMP, 2′-deoxyuridine-5′-monophosphate], the Kd in assay [1] was found to be 1100 ± 500 nM. The “effect on the oxidase reaction” value in assay [2] was “increase in rate”.

As to `CN(Cc1cnc2nc(N)nc(N)c2n1)c1ccc(C(=O)N[C@@H](CCC(=O)O)C(=O)O)cc1` [methotrexate], the “effect on the oxidase reaction” value in assay [2] is “display inhibition”.

Consider “5-hydroxy-2,4-naphthoquinone [plumbagin]”, for which the “increase in the rate of NADPH consumption” value in assay [2] was 5–10 fold. For the same compound, the “rate increase of hydrogen peroxide formation (initial velocity)” value in assay [3] is reported as roughly 10 fold.

For `O=C1C=C(O)C(=O)c2ccccc21` [lawsone, 2-hydroxy-1,4-naphthoquinone], in assay [2], the “increase in the rate of NADPH consumption” value is 5–10 fold.

Turning to `O=c1[nH]c(=O)n([C@H]2C[C@H](O)[C@@H](COP(=O)(O)O)O2)cc1F` [5-FdUMP, 5-fluoro-deoxyuridylate], in assay [1] (compared with dUMP), the “affinity to the FAD-MtbFDTS complex, in words” value is “less affinity”.
